Measurements published in publication PMC5011342, “A high throughput drug screening assay to identify compounds that promote oligodendrocyte differentiation using acutely dissociated and purified oligodendrocyte precursor cells” (BMC Research Notes, 2016).
Read-outs that look alike come from different tables or passages of the source.

Legend:
expanded OPCs = experiment: cells; settings: for viability at 0.1 µM / viability at 1 µM / viability at 10 µM: Rattus norvegicus, 72 h; for viability at 0.1 µM: read-out: 0.1 µM (% DMSO), alamarBlue viability, NCC library compound at 0.1 µM, sheet "All Tox data"; for viability at 1 µM: read-out: 1 µM (% DMSO), alamarBlue viability, NCC library compound at 1 µM, sheet "All Tox data"; for viability at 10 µM: read-out: 10 µM (% DMSO), alamarBlue viability, NCC library compound at 10 µM, sheet "All Tox data"
Summary of the method: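 Toxicity screen: compounds added at 0.1, 1 and 10 µM to PDGF-AA-expanded OPCs in 96-well plates, 3-day incubation at 37 °C, 10% CO2, then alamarBlue 1:10 for 4 h with fluorescence readout. Results set screening doses of 10/2, 2/0.4 or 0.4/0.08 µM.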

[1] = test system: acutely dissociated and purified rat OPCs; experiment: Acute OL differentiation assay (MBP expression/cell, immunofluorescent image quantification); assay type: cell-based; settings: for activation at 2 µM / 2 uM (% Quet): test compound at 2 uM; for activation at 2 µM: read-out: 2 uM (% Quet); for activation at 10 µM / 10 uM (% Quet): test compound at 10 uM; for activation at 10 µM: read-out: 10 uM (% Quet)
Summary of the method: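 This acute differentiation assay used purified rat OPCs from postnatal day 6–7 pups, seeded into PDL/laminin-coated 96-well plates in differentiation medium lacking PDGF and FGF. Compounds were applied in quadruplicate after a 1–2 h preincubation at 37 °C, 10 % CO2, with 0.1 % DMSO negative and 40 ng/ml T3 positive controls in eight wells. After fixation on DIV4, anti-MBP immunofluorescence images yielded MBP expression/cell.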

[2] = alamarBlue viability of expanded OPCs, compound at 0.1 µM, relative to DMSO control
[3] = alamarBlue viability of expanded OPCs, compound at 1 µM, relative to DMSO control
[4] = alamarBlue viability of expanded OPCs, compound at 10 µM, relative to DMSO control
[5] = Rattus norvegicus, NCC library screen, sheet "All OLga data", relative to quetiapine
[6] = Rattus norvegicus, MBP expression relative to quetiapine, NCC library screen, sheet "All OLga data"
[7] = alamarBlue viability, NCC library compound at 0.1 µM, sheet "All Tox data"
[8] = alamarBlue viability, NCC library compound at 1 µM, sheet "All Tox data"
[9] = alamarBlue viability, NCC library compound at 10 µM, sheet "All Tox data"
[10] = NCC library screen, sheet "All OLga data", relative to quetiapine

Row | SMILES | 0.1 µM (% DMSO) (expanded OPCs; [2]) | 1 µM (% DMSO) (expanded OPCs; [3]) | 10 µM (% DMSO) (expanded OPCs; [4]) | activation at 2 µM [1, 5] [%] | activation at 10 µM [1, 5] [%] | viability at 0.1 µM (expanded OPCs) [%] | viability at 1 µM (expanded OPCs) [%] | viability at 10 µM (expanded OPCs) [%] | further results
1 | Cc1ccc(C)c(OCCCC(C)(C)C(=O)O)c1 [Gemfibrozil] | 90.1 | 88.1 | 86.3 | 0.66 | 16.1 | – | – | – | –
2 | CCC1=C(C)CN(C(=O)NCCc2ccc(S(=O)(=O)NC(=O)N[C@H]3CC[C@H](C)CC3)cc2)C1=O [Glimepiride] | – | – | – | -12.7 | -54 | 97.2 | 82.6 | 83.6 | –
3 | Cc1cnc(C(=O)NCCc2ccc(S(=O)(=O)NC(=O)NC3CCCCC3)cc2)cn1 [Glipizide] | 88.0 | 86.3 | 83.0 | 6.4 | 8.4 | – | – | – | –
4 | COc1ccc(Cl)cc1C(=O)NCCc1ccc(S(=O)(=O)NC(=O)NC2CCCCC2)cc1 [Glyburide] | 95.4 | 91.5 | 85.2 | -19.5 | -20.2 | – | – | – | –
5 | C[N+]1(C)CCC(OC(=O)C(O)(c2ccccc2)C2CCCC2)C1 (stereo not shown) [Glycopyrrolate] | 100.4 | 104.4 | 113.1 | 7.1 | 19.5 | 96.7 | 91.4 | 115 | activation at 2 µM [1, 6]: 26.7%; activation at 10 µM [1, 6]: 27.6%
6 | CC(C)C[C@H](NC(=O)[C@@H](COC(C)(C)C)NC(=O)[C@H](Cc1ccc(O)cc1)NC(=O)[C@H](CO)NC(=O)[C@H](Cc1c[nH]c2ccccc12)NC(=O)[C@H](Cc1cnc[nH]1)NC(=O)[C@@H]1CCC(=O)N1)C(=O)N[C@@H](CCCNC(=N)N)C(=O)N1CCC[C@H]1C(=O)NNC(N)=O [Goserelin] | – | – | – | – | – | – | – | – | 0.1 µM (% DMSO) (expanded OPCs; [7]): 95.7 % DMSO; 1 µM (% DMSO) (expanded OPCs; [8]): 94.5 % DMSO; 10 µM (% DMSO) (expanded OPCs; [9]): 97.2 % DMSO; 2 uM (% Quet) [1, 10]: -6.3 % Quet; 10 uM (% Quet) [1, 10]: 5.4 % Quet
7 | CN1C2CCCC1CC(NC(=O)c1nn(C)c3ccccc13)C2 (stereo not shown) [Granisetron] | – | – | – | -25.3 | -23.7 | 84.1 | 87.1 | 72.4 | –
8 | COC1=CC(=O)C[C@@H](C)[C@]12Oc1c(Cl)c(OC)cc(OC)c1C2=O [Griseofulvin] | 95.9 | 93.1 | 66.2 | – | – | – | – | – | activation at 2 µM [1, 6]: -7.2%; activation at 10 µM [1, 6]: -53.4%
9 | N=C(N)N [Guanidine] | – | – | – | – | – | – | – | – | 0.1 µM (% DMSO) (expanded OPCs; [7]): 86.5 % DMSO; 1 µM (% DMSO) (expanded OPCs; [8]): 89.1 % DMSO; 10 µM (% DMSO) (expanded OPCs; [9]): 85.5 % DMSO; 2 uM (% Quet) [1, 10]: 1.4 % Quet; 10 uM (% Quet) [1, 10]: 5.3 % Quet
10 | C[C@@H]1C[C@H]2[C@@H]3C[C@H](F)C4=CC(=O)C(Cl)=C[C@]4(C)[C@@]3(F)[C@@H](O)C[C@]2(C)[C@@]1(O)C(=O)CO.O [Halometasone hydrate] | – | – | – | – | – | – | – | – | 0.1 µM (% DMSO) (expanded OPCs; alamarBlue viability of expanded OPCs, compound at 0.1 µM, sheet All Tox data): 103.7 % DMSO; 1 µM (% DMSO) (expanded OPCs; alamarBlue viability of expanded OPCs, compound at 1 µM, sheet All Tox data): 109.3 % DMSO; 10 µM (% DMSO) (expanded OPCs; alamarBlue viability of expanded OPCs, compound at 10 µM, sheet All Tox data): 105.9 % DMSO; OL differentiation, 2 uM (% Quet) ([1]; 2 uM test compound, relative to quetiapine, sheet "All OLga data"): -42.5 % Quet; OL differentiation, 10 uM (% Quet) ([1]; 10 uM test compound, relative to quetiapine, sheet "All OLga data"): -89.7 % Quet
11 | O=C(CCCN1CCC(O)(c2ccc(Cl)cc2)CC1)c1ccc(F)cc1 [Haloperidol] | – | – | – | 4.1 | – | 64 | 69.1 | 45.7 | activation at 0.4 µM ([1]; Rattus norvegicus, test compound at 0.4 uM, NCC library screen, sheet "All OLga data", relative to quetiapine, read-out: 0.4 uM (% Quet)): -22.3%
12 | Oc1c(Cl)cc(Cl)c(Cl)c1Cc1c(O)c(Cl)cc(Cl)c1Cl [Hexachlorophene] | 115.4 | 10.8 | 9.0 | – | – | – | – | – | activation at 0.08 µM ([1]; Rattus norvegicus, read-out: 0.08 uM (% Quet)): -122%
